# Test system: trigeminal neurons that innervate the dural vasculature
# Test: in vivo electrophysiological recordings from single unit dural-responsive trigeminal neurons (preclinical model of migraine)
# Conditions: rat; for ongoing neuronal firing of central trigeminal neurons / response to pain-producing stimulation of the dura mater of central trigeminal neurons: intravenous administration, P<0.05 vs. baseline; for ongoing neuronal firing of central trigeminal neurons: FIGS. 1A & 1E; for response to pain-producing stimulation of the dura mater of central trigeminal neurons: FIGS. 1B & 1F; for normal cutaneous facial noxious and innocuous somatosensory responses: same neurons, extracranial somatosensory processing
# From the text: FIGS. 1A-1H depict a preclinical model of migraine manipulates the pain responsive sensory neurons that innervate the dura mater and its associated blood vessels. The cell bodies of these sensory neurons reside in the trigeminal ganglia. Measuring dural-responsive trigeminal neuronal responses in animals has proven to be extremely predictive of therapeutic efficacy for abortive migraine treatments, such as triptans, and it also translates to migraine preventives. Here we show in vivo electrophysiological recordings in a rat from single unit trigeminal neurons that innervate the dural vasculature. […] Intravenous administration of the migraine abortive, naratriptan (FIGS. 1A-1D) and the migraine preventive, amitriptyline (FIGS. 1E-1H), inhibited ongoing neuronal firing (FIGS. 1A & 1E) and the response to pain-producing stimulation of the dura mater (FIGS. 1B & 1F) of central trigeminal neurons. […] In the same neurons, naratriptan and MRS5980 had no effect on normal cutaneous facial noxious and innocuous somatosensory responses. Amitriptyline, however did affect this normal somatosensory processing. * P<0.05 vs. baseline.
smiles,measurement,setting,value
CN(C)CCC=C1c2ccccc2CCc2ccccc21 [amitriptyline],ongoing neuronal firing of central trigeminal neurons,,inhibited
same,response to pain-producing stimulation of the dura mater of central trigeminal neurons,,inhibited
same,normal cutaneous facial noxious and innocuous somatosensory responses,,did affect
CNC(=O)[C@@]12C[C@@H]1[C@@H](n1cnc3c(NC)nc(C#Cc4ccc(Cl)s4)nc31)[C@H](O)[C@@H]2O [MRS5980],inhibiting neuronal responses (compared with naratriptan and amitriptyline),dural-responsive trigeminal neurons,equally efficacious
same,normal cutaneous facial noxious and innocuous somatosensory responses,,no effect
CNS(=O)(=O)CCc1ccc2[nH]cc(C3CCN(C)CC3)c2c1 [naratriptan],ongoing neuronal firing of central trigeminal neurons,,inhibited
same,response to pain-producing stimulation of the dura mater of central trigeminal neurons,,inhibited
same,normal cutaneous facial noxious and innocuous somatosensory responses,,no effect
